A word on the IC50: it is the concentration at which inhibition is half-maximal.

Like-named read-outs stand apart in the source and are kept apart here.

Eight compounds from patent US10087148B2, “Quinazolines as biogenic amine transport modulators” (THE UNITED STATES OF AMERICA AS REPRESENTED BY THE …, priority 2014, dated 2018) can be followed below.

For experiment [1], the target named is T1, dopamine transporter (DAT) (Rattus norvegicus (Rat), UniProt P23977). The experiment in a line: [3H]dopamine (DA) uptake inhibition in rat brain (caudate) synaptosomes. Format: biochemical.
T1 sequence (P23977 whole entry): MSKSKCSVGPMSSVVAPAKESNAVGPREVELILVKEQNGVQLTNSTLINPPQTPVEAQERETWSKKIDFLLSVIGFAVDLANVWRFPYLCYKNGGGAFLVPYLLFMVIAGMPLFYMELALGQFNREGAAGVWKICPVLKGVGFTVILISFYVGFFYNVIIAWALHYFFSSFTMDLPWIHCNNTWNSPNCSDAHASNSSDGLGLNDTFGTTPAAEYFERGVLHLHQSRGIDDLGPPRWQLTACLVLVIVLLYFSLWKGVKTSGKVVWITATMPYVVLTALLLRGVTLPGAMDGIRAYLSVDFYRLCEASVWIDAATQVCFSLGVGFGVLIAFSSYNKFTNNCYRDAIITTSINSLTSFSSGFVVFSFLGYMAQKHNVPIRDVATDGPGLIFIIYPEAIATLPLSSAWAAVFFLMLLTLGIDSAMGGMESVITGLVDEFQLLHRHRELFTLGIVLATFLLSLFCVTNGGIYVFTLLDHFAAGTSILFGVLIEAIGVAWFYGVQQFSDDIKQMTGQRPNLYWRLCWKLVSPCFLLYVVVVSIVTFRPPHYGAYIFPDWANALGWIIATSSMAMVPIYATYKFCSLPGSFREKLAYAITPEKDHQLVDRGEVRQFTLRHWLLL
Experiment [2] addresses serotonin transporter (SERT) (Rattus norvegicus (Rat), UniProt P31652). The experiment in a line: [3H]serotonin (5-HT) uptake inhibition in rat brain synaptosomes. The experiment is classed as biochemical. The note with it: for Emax: read-out: SERT Uptake Emax. The method, then: Uptake inhibition assay for the serotonin transporter was conducted in rat brain synaptosomes as described elsewhere with minor modifications (Rothman et al., Synapse 39, 32-41 (2001)). Freshly removed whole brain minus cerebellum and caudate was homogenized in 10% ice-cold sucrose with 12 strokes of a hand-held Potter-Elvehjem homogenizer followed by centrifugation at 1000×g for 10 min. The supernatants were saved on ice and used immediately. Transporter activity at SERT was assessed using 5 nM [^3H]serotonin. The assay buffer was Krebs-phosphate buffer containing 154.4 mM NaCl, 2.9 mM KCl, 1.1 mM CaCl2, 0.83 mM MgCl2, 5 mM glucose, 1 mg/mL ascorbic acid, and 50 μM pargyline. […] Uptake inhibition assays were conducted at 25° C. and were initiated by adding 100 μL of tissue to 900 μL assay buffer containing test drug and [^3H]serotonin. Test drugs were diluted in assay buffer containing 1 mg/mL bovine serum albumin. Nonspecific uptake was measured by incubating in the presence of 10 μM indatraline. The reactions were stopped after 30 min by rapid vacuum filtration with a cell harvester (BRANDEL) over GF/B filters (Whatman) presoaked in wash buffer maintained at 25° C. (10 mM Tris-HCl, pH 7.4/150 mM NaCl). Filters were rinsed with 6 mL wash buffer and retained tritium was quantified by a MicroBeta liquid scintillation counter (PerkinElmer) after overnight extraction in 0.6 mL of liquid scintillation cocktail (Cytoscint, ICN). The data from three experiments were pooled and fit to a dose-response curve equation (using Kaleidagraph), to yield an Emax and EC50 value.

Experiment [3] addresses norepinephrine transporter (NET) (Rattus norvegicus, UniProt Q63380). The experiment in a line: [3H]norepinephrine (NE) uptake inhibition in rat brain synaptosomes. The note with it: for Emax: read-out: NET Uptake Emax; for IC50: read-out: NET Uptake IC50, mean ± S.D., n = 3. Format: biochemical. The protocol:
Uptake inhibition assay for the norepinephrine transporter was conducted in rat brain synaptosomes as described elsewhere with minor modifications (Rothman et al., Synapse 39, 32-41 (2001)). Freshly removed whole brain minus cerebellum and caudate was homogenized in 10% ice-cold sucrose with 12 strokes of a hand-held Potter-Elvehjem homogenizer followed by centrifugation at 1000×g for 10 minutes. The supernatants were saved on ice and used immediately. Transporter activity at NET was assessed using 10 nM [^3H]norepinephrine. The assay buffer was Krebs-phosphate buffer containing 154.4 mM NaCl, 2.9 mM KCl, 1.1 mM CaCl2, 0.83 mM MgCl2, 5 mM glucose, 1 mg/mL ascorbic acid, and 50 μM pargyline. […] Uptake inhibition assays were conducted at 37° C. and were initiated by adding 100 μL of tissue to 900 μL assay buffer containing test drug and [^3H]norepinephrine. Test drugs were diluted in assay buffer containing 1 mg/mL bovine serum albumin. Nonspecific uptake was measured by incubating in the presence of 10 μM indatraline. The reactions were stopped after 10 minutes by rapid vacuum filtration with a cell harvester (BRANDEL) over GF/B filters (Whatman) presoaked in wash buffer maintained at 25° C. (10 mM Tris-HCl, pH 7.4/150 mM NaCl). Filters were rinsed with 6 mL wash buffer and retained tritium was quantified by a MicroBeta liquid scintillation counter (PerkinElmer) after overnight extraction in 0.6 mL of liquid scintillation cocktail (Cytoscint, ICN). The data from three experiments were pooled and fit to a dose-response curve equation (using Kaleidagraph), to yield an Emax and EC50 value.

Experiment [4] addresses T1, dopamine transporter (DAT). The experiment in a line: Dopamine transporter-mediated [3H]MPP+ release (d-amphetamine-induced, shift experiments) in rat caudate synaptosomes. Format: biochemical. The note with it: for Apparent Kc: [Blocker]/((EC50-2/EC50-1) − 1); for Emax: read-out: d-Amphetamine Emax in presence of blocker.
Experiment [5] has as its target T2, DAT (Rattus norvegicus (Rat), UniProt P23977). The experiment in a line: Inhibition of [3H]WIN35428 binding to rat caudate DAT. The note with it: [3H]WIN35428; for Emax / IC50 / DAT Binding Emax / DAT Binding IC50: mean ± S.D., n = 3; for IC50 / DAT Binding IC50: unit as printed in head (text gives 1100 nM where table prints 1.1). The method, then:
All of the test compounds were synthesized as described herein. […] The data from three experiments were pooled and fit to a dose-response curve equation (using KaleidaGraph; Synergy Software, Reading, Pa.) to yield an Emax and IC50 value. […] Selected compounds were also tested for their ability to inhibit [^3H]WIN35428 binding to rat caudate DAT.

For experiment [6], the target named is T2, DAT. The experiment in a line: d-amphetamine-induced, DAT-mediated [3H]DA release (shift experiments). Format: biochemical. The note with it: for Apparent Kc: [Blocker]/((EC50-2/EC50-1) − 1); for Emax: read-out: d-Amphetamine Emax in presence of blocker, blocker concentration per row, mean ± S.D., n = 3.
Where [7] appears, read: mean ± S.D., n = 3, read-out: DAT Uptake Emax.
Where [8] appears, read: values in Table 9, read-out: Emax for DAT Uptake Inhibition.
Setting [9] is: [3H]MPP+ release, blocker concentration per row, mean ± S.D., n = 3.

T2 sequence (P23977 whole entry): as above
norepinephrine transporter (NET), sequence (Q63380 1-617): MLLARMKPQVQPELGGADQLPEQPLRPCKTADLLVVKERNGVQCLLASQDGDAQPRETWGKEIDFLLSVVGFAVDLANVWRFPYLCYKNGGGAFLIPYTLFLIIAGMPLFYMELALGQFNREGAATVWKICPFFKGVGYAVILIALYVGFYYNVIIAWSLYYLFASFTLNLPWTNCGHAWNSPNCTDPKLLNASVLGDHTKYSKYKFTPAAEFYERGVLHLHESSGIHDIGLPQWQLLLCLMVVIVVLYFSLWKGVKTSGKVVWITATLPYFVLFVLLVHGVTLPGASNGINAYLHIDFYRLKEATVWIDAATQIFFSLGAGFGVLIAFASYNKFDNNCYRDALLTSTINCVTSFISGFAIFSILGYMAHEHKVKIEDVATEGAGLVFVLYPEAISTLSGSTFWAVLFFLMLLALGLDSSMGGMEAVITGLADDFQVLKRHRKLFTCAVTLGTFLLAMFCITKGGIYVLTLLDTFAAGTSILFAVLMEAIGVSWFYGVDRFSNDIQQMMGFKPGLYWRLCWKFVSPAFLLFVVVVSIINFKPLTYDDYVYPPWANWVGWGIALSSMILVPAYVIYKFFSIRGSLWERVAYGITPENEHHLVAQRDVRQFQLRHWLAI
serotonin transporter (SERT), sequence (P31652 whole entry): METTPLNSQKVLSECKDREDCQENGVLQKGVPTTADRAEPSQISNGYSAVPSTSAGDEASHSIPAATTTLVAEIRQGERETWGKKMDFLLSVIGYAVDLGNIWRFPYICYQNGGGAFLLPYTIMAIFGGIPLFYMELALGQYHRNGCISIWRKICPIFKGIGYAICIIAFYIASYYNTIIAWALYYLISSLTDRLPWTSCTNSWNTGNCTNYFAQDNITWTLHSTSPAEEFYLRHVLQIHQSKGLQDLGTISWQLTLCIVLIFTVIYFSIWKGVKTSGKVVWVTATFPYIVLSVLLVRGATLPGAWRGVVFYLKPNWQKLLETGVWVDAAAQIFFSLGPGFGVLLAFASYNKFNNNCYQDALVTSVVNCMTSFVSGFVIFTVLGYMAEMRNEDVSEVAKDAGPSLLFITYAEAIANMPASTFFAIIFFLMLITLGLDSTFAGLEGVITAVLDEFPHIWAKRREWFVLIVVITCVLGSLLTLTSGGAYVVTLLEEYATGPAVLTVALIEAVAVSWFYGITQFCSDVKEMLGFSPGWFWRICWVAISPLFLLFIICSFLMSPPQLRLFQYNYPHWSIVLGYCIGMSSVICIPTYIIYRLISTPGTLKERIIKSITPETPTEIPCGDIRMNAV

`c1ccc(C(CCNc2nc(-c3ccc4[nH]ccc4c3)nc3ccccc23)c2ccccc2)cc1` [SRI-29213]: the half-inhibitory concentration (IC50) in experiment [1] (mean ± S.D., n = 3) amounted to 16 ± 4 nM; in experiment [2] (mean ± S.D., n = 3), 89 ± 51 nM; in experiment [3], 346 ± 59 nM; in experiment [5] it was 200 nM. Besides, the Emax came out at 81 ± 3% in experiment [1] (setting [7]); 81% in experiment [1] (setting [8]); 43 ± 4% in experiment [2] (mean ± S.D., n = 3); 77 ± 3% in experiment [3]; 78 ± 2% in experiment [4] (setting [9]); 94 ± 2% in experiment [5]. In addition, the Emax in experiment [6] worked out at 71 ± 3%. The “Apparent Kc” value in experiment [4] ([3H]MPP+ release) is 886 nM; in experiment [6], 6.7 µM.

Turning to `c1ccc(C(CNc2nc(-c3ccc4nccn4c3)nc3ccccc23)c2ccccc2)cc1` [SRI-29574], the “Efficacy of [3H]DA (DAT) uptake inhibition, in words” value in experiment [1] was “partially inhibited”. In addition, the Emax in experiment [1] (setting [7]) is 68 ± 2%; in experiment [1] (setting [8]), 68%; in experiment [2] (mean ± S.D., n = 3), 52 ± 2%; in experiment [3], 72 ± 4%; in experiment [4] (setting [9]), 103 ± 3%; in experiment [6], 95 ± 2%. Also, the IC50 in experiment [3] was 52 ± 15 nM. In addition, the entries for the “Apparent Kc” value in experiment [4] ([3H]MPP+ release) and in experiment [6] were -368 nM and -0.239 µM, respectively. In addition, the “Effect on d-amphetamine-induced DAT-mediated [3H]MPP+ release curve, in words” value in experiment [4] (blocking concentration ~25 times DAT uptake IC50) is “increased EC50 and decreased Emax”. Besides, the “Inhibition of DAT binding, in words” value in experiment [5] is “inactive”. Besides, the “DAT Binding Emax” value in experiment [5] was “Inactive”. The “DAT Binding IC50” value in experiment [5] was “Inactive”.

In the case of `c1ccc(C(CNc2nc(-c3ccc4nccn4c3)nc3ccccc23)c2ccc[nH]2)cc1` (stereo not drawn) [SRI-30826], the Emax in experiment [1] (setting [7]) came out at 64 ± 2%; in experiment [1] (setting [8]) it was 64%; in experiment [2] (mean ± S.D., n = 3), 56 ± 2%; in experiment [3], 81 ± 2%; in experiment [4] (setting [9]) it was 105 ± 4%; in experiment [5], 42 ± 3%. For the same compound, the IC50 is 88 ± 15 nM in experiment [3] and 1280 ± 400 nM in experiment [5]. Moreover, the “Apparent Kc” value in experiment [4] ([3H]MPP+ release) was 1600 nM.

In the case of `Cc1cc2nccn2cc1-c1nc(NCC(c2ccccc2)c2ccccc2)c2ccccc2n1` [SRI-30827], the Emax in experiment [1] (setting [7]) stood at 63 ± 2%; in experiment [1] (setting [8]), 63%; in experiment [2] (mean ± S.D., n = 3) it was 58 ± 3%; in experiment [3], 67 ± 3%; in experiment [4] (setting [9]), 104 ± 3%; in experiment [5] it was 79 ± 3%. For the same compound, the values for the IC50 in experiment [3] and in experiment [5] were 21 ± 7 nM and 1990 ± 330 nM, respectively. For the same compound, the “Apparent Kc” value in experiment [4] ([3H]MPP+ release) was 267 nM.

For `Cl.Fc1ccc2c(NCC(c3ccccc3)c3ccccc3)nc(-c3ccc4nccn4c3)nc2c1` [SRI-31034], the Emax came to 69 ± 1% in experiment [1] (read-out: DAT Uptake Emax); 69% in experiment [1] (read-out: Emax for DAT Uptake Inhibition); 49 ± 2% in experiment [2]; 63 ± 3% in experiment [3]; 104 ± 5% in experiment [4]. Besides, the IC50 in experiment [3] turned out to be 94 ± 22 nM. The “Apparent Kc” value in experiment [4] ([3H]MPP+ release) is 3200 nM. The “DAT Binding Emax” value in experiment [5] is reported as “Inactive”. For the same compound, in experiment [5], the “DAT Binding IC50” value is “Inactive”.

`Cc1cc2nccn2cc1-c1nc(NCC(c2ccccc2)c2ccc[nH]2)c2ccccc2n1` (stereo not drawn) [SRI-31040]: the Emax in experiment [1] (setting [7]) was 69 ± 1%; in experiment [1] (setting [8]) it was 69%; in experiment [2] (mean ± S.D., n = 3) it was 54 ± 2%; in experiment [3], 70 ± 4%; in experiment [4] (setting [9]), 105 ± 3%; in experiment [5], 91 ± 7%. In addition, the figures for the IC50 in experiment [3] and in experiment [5] were 11 ± 4 nM and 3740 ± 1100 nM, respectively. The “Apparent Kc” value in experiment [4] ([3H]MPP+ release) is listed as 55 nM.

Regarding `Cc1cc2nccn2cc1-c1nc(NCC(c2ccccc2)c2ccncc2)c2ccccc2n1` (stereo not drawn) [SRI-31142], the Emax in experiment [1] (setting [7]) worked out at 72 ± 2%; in experiment [1] (setting [8]), 72%; in experiment [2] (mean ± S.D., n = 3), 48 ± 1%; in experiment [3], 61 ± 2%; in experiment [4] (setting [9]), 103 ± 3%; in experiment [5], 92 ± 4%. Moreover, the IC50 turned out to be 17 ± 4 nM in experiment [3] and 2340 ± 450 nM in experiment [5]. The “Apparent Kc” value in experiment [4] ([3H]MPP+ release) is 400 nM.

For the compound `Cc1cc2nccn2cc1-c1nc(NCC(O)(c2ccccc2)c2ccccc2)c2ccccc2n1` [SRI-31143], the Emax in experiment [1] (setting [7]) came out at 69 ± 1%; in experiment [1] (setting [8]), 67%; in experiment [2] (mean ± S.D., n = 3), 51 ± 2%; in experiment [3], 69 ± 4%; in experiment [4] (setting [9]), 104 ± 4%; in experiment [5] it was 52 ± 8%. In addition, the figures for the IC50 in experiment [3] and in experiment [5] were 16 ± 5 nM and 3390 ± 1990 nM, respectively. Further, in experiment [4] ([3H]MPP+ release), the “Apparent Kc” value amounted to 46 nM.
